Measurements: patent US11559504B2, “Ceramide nanoliposomes, compositions and methods of using for immunotherapy” (THE PENN STATE RESEARCH FOUNDATION, priority 2017, dated 2023)

Legend:
[1] = test system: G-BMMs and M-BMMs; experiment: ROS in bone marrow-derived macrophages in vitro, ROS-Glo H2O2 luminescent assay; type: cell-based, C57BL/6 mice; conditions: ceramides of carbon-chain lengths 6 to 22, overnight incubation
Experimental: Size-matched TBMs were randomly assigned to one of three groups: vehicle, LipC6, or no injection. Two weeks after injection, splenic leukocytes and TILs were prepared from the spleen and the perfused tumors. The cells were incubated for 45 mins at 37° C., then washed three times with media, with the remaining adherent cells being >90% CD11b positive (macrophages). Intracellular ROS were measured with Glo™ H2O2 assay. Briefly, H2O2 substrate was added to each well followed by addition of ROS-Glo™ detection solution. After incubation for 20 minutes at RT, relative luminescence was measured to assess ROS level in TAMs (A) and splenic macrophages (B). Similarly, bone marrow-derived macrophages (BMMs) were prepared in vitro by stimulating bone marrow cells from wild type C57BL/6 mice with GMCSF (G-BMMs) and MCSF (M-BMMs) for 6 days.
G-BMMs (A) and M-BMMs (B) were prepared in vitro by stimulating bone marrow cells from wild type C57BL/6 mice with GMCSF and MCSF for 6 days. After incubation with the ceramides of different carbon-chain lengths varying from 6 to 22 overnight, the relative ROS level in G-BMMs (C) and M-BMMs (D) was measured with a luminescence assay in accordance with the manufacturer's instruction. n=3; error bars represent±SD. * p<0.05.
Mice. […] Small tumors can be detected by MRI two months after hepatocyte inoculation. […]

[2] = test system: GM-BMMs; experiment: M1 cytokine mRNA in GM-BMMs with LipC6, NAC or both, RT-PCR; type: cell-based, C57BL/6 mice; conditions: 50 μM NAC, 24 hours
Experimental: GM-BMMs were prepared in vitro by stimulating bone marrow derived monocytes from wild type C57BL/6 mice with 50 ng/mL GMCSF for 6 days. GM-BMMs were incubated for 24 hours with 25 μM vehicle, 25 μM LipC6, 50 μM NAC or LipC6 plus NAC. Total RNA was extracted and subjected to RT-PCR to quantitate M1 cytokines including iNOS (B), IL-12 (C), IFN-γ (D) and TNF-α (E). n=3, *=p<0.05 and **=p<0.001 using Student's t-test.
Total RNA extraction and real-time PCR. Total RNAs were extracted using Trizol reagent (Invitrogen, Carlsbad, Calif.) according to the manufacturer's instructions. 2 μg of total RNAs were used for cDNA synthesis with High Capacity cDNA Reverse Transcription Kits (Applied Biosystems, CA). Each PCR was performed in a 20 μl reaction mixture containing SYBR Green I (Roche, Basel, Switzerland). Real-time PCR was performed with CFX96 Real-Time PCR Detection System (Bio-Rad, CA). Reactions were run in triplicate in three independent experiments. Expression data were normalized to the geometric mean of housekeeping gene 18S rRNA to control the variability in expression levels and were analyzed using the 2^ΔΔCT method.
To further study if ROS signaling is required for LipC6-mediated modulation of macrophages, we compared the function of LipC6 and the ROS specific inhibitor N-acetyl-L-cysteine (NAC) in modulating M1 cytokine production in GMCSF-induced macrophages.

Row | SMILES | suppressive effect on ROS production in BMMs [1] | M1 cytokine production profile compared with LipC6 [2]
1 | CCCCCCCCCCCCC/C=C/[C@@H](O)[C@H](CO)NC(=O)CCCCC [C6-ceramide, N-hexanoyl-D-erythro-sphinogosine] | suppressive effect | –
2 | CC(=O)N[C@@H](CS)C(=O)O [NAC, N-acetyl-L-cysteine] | – | similar
3 | CCCCCCCCCCCCC/C=C/[C@@H](O)[C@H](CO)NC(=O)CCCCCCC [C8-ceramide] | suppressive effect | –
